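Where inhibition never reached the appropriate level, the endpoint shown equals the highest concentration tested. Otherwise, values were interpolated linearly from a five-concentration, 48-hour dose response in 96-well plates. GI50: concentration for 50% inhibition of growth. TGI is the concentration that stops growth completely.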
How the values were obtained:
Experiment in all cases: inhibition of tumour cell growth, NCI panel, 48 h
[1] = tested on: CCRF-CEM leukemia
[2] = tested on: CAKI-1 renal
[3] = tested on: NCI-H460 lung
[4] = tested on: MOLT-4 leukemia
[5] = tested on: SK-OV-3 ovarian
[6] = tested on: HCC-2998 colon
[7] = tested on: NCI-H522 lung
[8] = tested on: NCI-H226 lung
[9] = tested on: NCI/ADR-RES ovarian
[10] = tested on: LOX IMVI melanoma

## Cc1cc(N(CCC#N)S(=O)(=O)c2ccccc2)ccc1C=Nc1cccc(C(=O)O)c1
[1]
  TGI: > 100 µM
[2]
  TGI: > 100 µM
[3]
  TGI: > 100 µM
[4]
  TGI: > 100 µM
[5]
  TGI: > 100 µM
[6]
  TGI: > 100 µM
[7]
  TGI: > 100 µM
[8]
  TGI: > 100 µM

## Cc1c(C)c2c(c(C)c1OC(=O)CCC(=O)[O-])CCC(C)(CCCCCCCCCCC[P+](c1ccccc1)(c1ccccc1)c1ccccc1)O2 (stereo not given)
[1]
  GI50: 0.226 µM
  TGI: 1.31 µM
[2]
  GI50: 0.451 µM
  TGI: 1.34 µM
[9]
  GI50: 5.62 µM
  TGI: 22 µM
[4]
  GI50: 0.456 µM
  TGI: 4.7 µM
[5]
  GI50: 0.157 µM
  TGI: 0.538 µM
[10]
  GI50: 0.194 µM
  TGI: 0.747 µM
[6]
  GI50: 0.214 µM
  TGI: 0.809 µM
[7]
  GI50: 0.153 µM
  TGI: 1.51 µM

## O=C([CH-]C(=O)c1ccccc1)c1ccccc1.[C-]#[O+].[C-]#[O+].[Ir]
[2]
  GI50: 79.1 µM
  TGI: > 100 µM
[3]
  GI50: 39.7 µM
  TGI: > 100 µM
[4]
  GI50: 56.7 µM
  TGI: > 100 µM
[5]
  GI50: > 100 µM
  TGI: > 100 µM
[10]
  GI50: 46.5 µM
  TGI: > 100 µM
[6]
  GI50: > 100 µM
  TGI: > 100 µM
[8]
  GI50: 33.3 µM
  TGI: > 100 µM

## CON(C)c1nc(N)c(C#N)c(C#N)c1C#N
[1]
  TGI: > 10 µM
[2]
  TGI: > 10 µM
[3]
  TGI: > 10 µM
[9]
  TGI: > 10 µM
[4]
  TGI: > 10 µM
[5]
  TGI: > 10 µM
[10]
  TGI: > 10 µM
[6]
  TGI: > 10 µM
[7]
  TGI: > 10 µM
[8]
  TGI: > 10 µM

## C=C1CC[C@@]2(C)[C@@H]([C@@H]1C)[C@H]1CC[C@@H]3[C@@]4(C)CC[C@H](O)C(C)(C)[C@@H]4CC[C@@]3(C)[C@]1(C)C[C@@H]2O
[1]
  TGI: > 100 µM
[2]
  TGI: 5.59 µM
[3]
  TGI: 4.7 µM
[9]
  TGI: 14.2 µM
[4]
  TGI: > 100 µM
[5]
  TGI: 51.3 µM
[10]
  TGI: 3.47 µM
[7]
  TGI: 4.52 µM
[8]
  TGI: 40.1 µM

## C1=N[C@]23C(=N[C@H](N=C2NCc2ccco2)[C@]24N=CNC2=N[C@H]3N=C4NCc2ccco2)N1
[1]
  GI50: > 100 µM
  TGI: > 100 µM
[2]
  GI50: 19.5 µM
  TGI: > 100 µM
[3]
  GI50: > 100 µM
  TGI: > 100 µM
[9]
  GI50: > 100 µM
  TGI: > 100 µM
[4]
  GI50: > 100 µM
  TGI: > 100 µM
[5]
  GI50: > 100 µM
  TGI: > 100 µM
[10]
  GI50: > 100 µM
  TGI: > 100 µM
[6]
  GI50: > 100 µM
  TGI: > 100 µM
[7]
  GI50: > 100 µM
  TGI: > 100 µM
[8]
  GI50: 65.4 µM
  TGI: > 100 µM

## CC1(CO)C(O)CCC2(C)C1CCC1CC3CC12CCC3(O)CO (stereo not given)
[1]
  TGI: > 100 µM
[2]
  TGI: > 100 µM
[3]
  TGI: > 100 µM
[9]
  TGI: > 100 µM
[4]
  TGI: > 100 µM
[5]
  TGI: > 100 µM
[10]
  TGI: > 100 µM
[6]
  TGI: > 100 µM
[7]
  TGI: > 100 µM
[8]
  TGI: > 89.8 µM

## COc1cccc(N/C(C)=C2/CCOC2=O)c1
[1]
  TGI: > 10 µM
[2]
  TGI: > 10 µM
[3]
  TGI: > 10 µM
[9]
  TGI: > 10 µM
[4]
  TGI: > 10 µM
[5]
  TGI: > 10 µM
[10]
  TGI: > 10 µM
[6]
  TGI: > 10 µM
[7]
  TGI: > 10 µM
[8]
  TGI: > 10 µM

## O=C(NN1C(=O)C(Cl)C1c1cccc(O)c1)c1ccccc1O (stereo not given)
[1]
  TGI: > 100 µM
[3]
  TGI: > 100 µM
[4]
  TGI: > 100 µM
[5]
  TGI: > 100 µM
[10]
  TGI: > 100 µM
[6]
  TGI: > 100 µM
[7]
  TGI: > 100 µM
[8]
  TGI: > 100 µM
